A value given as a limit tells only on which side of the number the result lay.

The target of this test is Protein farnesyltransferase (Sus scrofa). The experiment in a line: In vitro activity against Protein farnesyltransferase. To be noted: read-out: I50.
For the molecule `CC(C)C[C@H](NC(=O)[C@@H](NC(=O)[C@@H](N)CC(=O)N(C)OCc1ccccc1)C(C)C)C(=O)N[C@@H](CO)C(=O)O`, the IC50 is more than 360 µM.

As to `CC(C)C[C@H](NC(=O)[C@@H](NC(=O)[C@@H](N)CC(=O)N(C)O)C(C)C)C(=O)N[C@@H](CO)C(=O)O`, the IC50 is more than 360 µM.

Turning to `CC(C)C[C@H](NC(=O)[C@@H](NC(=O)[C@H](CC(=O)N(C)O)NC(=O)OC(C)(C)C)C(C)C)C(=O)N[C@@H](CO)C(=O)O`, the IC50 is more than 360 µM.

In the case of `CSCC[C@H](NC(=O)[C@@H](NC(=O)[C@@H](NC(=O)CC(=O)N(O)C/C=C(\C)CC/C=C(\C)CCC=C(C)C)C(C)C)C(C)C)C(=O)O`, the IC50 came to 0.33 µM.

On to `CSCC[C@@H](NC(=O)[C@@H](NC(=O)[C@@H](NC(=O)CC(=O)N(O)C/C=C(\C)CC/C=C(\C)CCC=C(C)C)C(C)C)C(C)C)C(=O)O`, for which the IC50 stood at 30.5 µM.

With `CSCC[C@H](NC(=O)[C@@H](NC(=O)[C@@H](NC(=O)CC(=O)N(O)CC/C=C(\C)CC/C=C(\C)CCC=C(C)C)C(C)C)C(C)C)C(=O)O`, the IC50 came to 5.6 µM.

On to `CC(C)=CCC/C(C)=C/CC/C(C)=C/CN(O)C(=O)CCC(=O)N[C@H](C(=O)N[C@@H](CC(C)C)C(=O)N[C@@H](CO)C(=O)O)C(C)C`, for which the IC50 turned out to be 42.5 µM.

As for `CC(C)C[C@H](NC(=O)[C@@H](NC(=O)[C@H](CC(=O)N(C)OCc1ccccc1)NC(=O)OC(C)(C)C)C(C)C)C(=O)N[C@@H](CO)C(=O)O`, the IC50 was more than 360 µM.

(Values after ChEMBL document CHEMBL1129446, “Hydroxamic acid-based bisubstrate analog inhibitors of Ras farnesyl protein transferase” (J Med Chem, 1996).)
